From patent US12077503B2, “Substituted cyclic amides and their use as herbicides” (FMC CORPORATION, priority 2015, dated 2024)

Tests used:
Type in all cases: in vivo
[1] = tested on: redroot pigweed (Amaranthus retroflexus); experiment: Test G Pre-Emergence Protocol; details: Amaranthus retroflexus, pre-emergence, 312 h, evaluated after 13 days; for pest or weed control at 15.625 g/ha: 15.625 g ai/ha; for pest or weed control at 15.625 g/ha / pest or weed control at 250 g/ha: read-out: Pigweed, Redroot damage rating (100=total damage to plant; 0=no damage to plant); for pest or weed control at 62.5 g/ha: 62.5 g ai/ha, 100=total damage to plant, 0=no damage to plant, read-out: Pigweed, Redroot damage rating; for pest or weed control at 250 g/ha: 250 g ai/ha
Summary of the method: (§1)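 Test compound in 0.5% Tween 20 acetone/water (50:50) was applied at three rates (15.625, 62.5, 250 g/ha) to soil sown one day earlier. After 13 days plants were scored for injury, where 0 means unaffected and 100 means completely damaged.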

[2] = tested on: ivy-leaved morning glory (Ipomoea hederacea); experiment: Test G Pre-Emergence Protocol; details: Ipomoea, pre-emergence, 312 h, evaluated after 13 days; for pest or weed control at 15.625 g/ha: 15.625 g ai/ha; for pest or weed control at 15.625 g/ha / pest or weed control at 250 g/ha: read-out: Morningglory, Ivy-leaved damage rating (100=total damage to plant; 0=no damage to plant); for pest or weed control at 62.5 g/ha: 62.5 g ai/ha, 100=total damage to plant, 0=no damage to plant, read-out: Morningglory, Ivy-leaved damage rating; for pest or weed control at 250 g/ha: 250 g ai/ha
Summary of the method: as §1

[3] = tested on: corn (Zea mays); experiment: Test G Pre-Emergence Protocol; details: Zea mays, pre-emergence, 312 h, evaluated after 13 days; for plant injury at 15.625 g/ha: 15.625 g ai/ha; for plant injury at 15.625 g/ha / plant injury at 250 g/ha: read-out: Corn damage rating (100=total damage to plant; 0=no damage to plant); for plant injury at 62.5 g/ha: 62.5 g ai/ha, 100=total damage to plant, 0=no damage to plant, read-out: Corn damage rating; for plant injury at 250 g/ha: 250 g ai/ha
Summary of the method: as §1

[4] = tested on: barnyardgrass (Echinochloa crus-galli); experiment: Test G Pre-Emergence Protocol; details: Echinochloa crus-galli, pre-emergence, 312 h, evaluated after 13 days; for pest or weed control at 15.625 g/ha: 15.625 g ai/ha; for pest or weed control at 15.625 g/ha / pest or weed control at 250 g/ha: read-out: Barnyardgrass damage rating (100=total damage to plant; 0=no damage to plant); for pest or weed control at 62.5 g/ha: 62.5 g ai/ha, 100=total damage to plant, 0=no damage to plant, read-out: Barnyardgrass damage rating; for pest or weed control at 250 g/ha: 250 g ai/ha
Summary of the method: as §1

[5] = tested on: giant foxtail (Setaria faberi); experiment: Test G Pre-Emergence Protocol; details: Setaria faberi, pre-emergence, 312 h, evaluated after 13 days; for pest or weed control at 15.625 g/ha: 15.625 g ai/ha; for pest or weed control at 15.625 g/ha / pest or weed control at 250 g/ha: read-out: Foxtail, Giant damage rating (100=total damage to plant; 0=no damage to plant); for pest or weed control at 62.5 g/ha: 62.5 g ai/ha, 100=total damage to plant, 0=no damage to plant, read-out: Foxtail, Giant damage rating; for pest or weed control at 250 g/ha: 250 g ai/ha
Summary of the method: as §1

[6] = tested on: velvetleaf (Abutilon theophrasti); experiment: Test G Pre-Emergence Protocol; details: Abutilon theophrasti, pre-emergence, 312 h, evaluated after 13 days; for pest or weed control at 15.625 g/ha: 15.625 g ai/ha; for pest or weed control at 15.625 g/ha / pest or weed control at 250 g/ha: read-out: Velvetleaf damage rating (100=total damage to plant; 0=no damage to plant); for pest or weed control at 62.5 g/ha: 62.5 g ai/ha, 100=total damage to plant, 0=no damage to plant, read-out: Velvetleaf damage rating; for pest or weed control at 250 g/ha: 250 g ai/ha
Summary of the method: as §1

[7] = tested on: redroot pigweed (Amaranthus retroflexus); experiment: Test G Post-Emergence Protocol; details: Amaranthus retroflexus, post-emergence, 312 h, read-out: Pigweed, Redroot damage rating; for pest or weed control at 15.625 g/ha: 15.625 g ai/ha, evaluated after 13 days (100=total damage to plant; 0=no damage to plant); for pest or weed control at 62.5 g/ha: 62.5 g ai/ha; for pest or weed control at 62.5 g/ha / pest or weed control at 250 g/ha: evaluated after 13 days, 100=total damage to plant, 0=no damage to plant; for pest or weed control at 250 g/ha: 250 g ai/ha
Summary of the method: (§2)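 Post-emergence herbicidal damage, scored visually 0–100 at 13 days. Application at 15.625, 62.5 or 250 g/ha onto 8-day-old plants grown under glasshouse control.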

[8] = tested on: ivy-leaved morning glory (Ipomoea hederacea); experiment: Test G Post-Emergence Protocol; details: Ipomoea, post-emergence, 312 h, read-out: Morningglory, Ivy-leaved damage rating; for pest or weed control at 15.625 g/ha: 15.625 g ai/ha, evaluated after 13 days (100=total damage to plant; 0=no damage to plant); for pest or weed control at 62.5 g/ha: 62.5 g ai/ha; for pest or weed control at 62.5 g/ha / pest or weed control at 250 g/ha: evaluated after 13 days, 100=total damage to plant, 0=no damage to plant; for pest or weed control at 250 g/ha: 250 g ai/ha
Summary of the method: as §2

[9] = tested on: corn (Zea mays); experiment: Test G Post-Emergence Protocol; details: Zea mays, post-emergence, 312 h, read-out: Corn damage rating; for plant injury at 15.625 g/ha: 15.625 g ai/ha, evaluated after 13 days (100=total damage to plant; 0=no damage to plant); for plant injury at 62.5 g/ha: 62.5 g ai/ha; for plant injury at 62.5 g/ha / plant injury at 250 g/ha: evaluated after 13 days, 100=total damage to plant, 0=no damage to plant; for plant injury at 250 g/ha: 250 g ai/ha
Summary of the method: as §2

[10] = tested on: barnyardgrass (Echinochloa crus-galli); experiment: Test G Post-Emergence Protocol; details: Echinochloa crus-galli, post-emergence, 312 h, read-out: Barnyardgrass damage rating; for pest or weed control at 15.625 g/ha: 15.625 g ai/ha, evaluated after 13 days (100=total damage to plant; 0=no damage to plant); for pest or weed control at 62.5 g/ha: 62.5 g ai/ha; for pest or weed control at 62.5 g/ha / pest or weed control at 250 g/ha: evaluated after 13 days, 100=total damage to plant, 0=no damage to plant; for pest or weed control at 250 g/ha: 250 g ai/ha
Summary of the method: as §2

[11] = tested on: giant foxtail (Setaria faberi); experiment: Test G Post-Emergence Protocol; details: Setaria faberi, post-emergence, 312 h, read-out: Foxtail, Giant damage rating; for pest or weed control at 15.625 g/ha: 15.625 g ai/ha, evaluated after 13 days (100=total damage to plant; 0=no damage to plant); for pest or weed control at 62.5 g/ha: 62.5 g ai/ha; for pest or weed control at 62.5 g/ha / pest or weed control at 250 g/ha: evaluated after 13 days, 100=total damage to plant, 0=no damage to plant; for pest or weed control at 250 g/ha: 250 g ai/ha
Summary of the method: as §2

[12] = tested on: velvetleaf (Abutilon theophrasti); experiment: Test G Post-Emergence Protocol; details: Abutilon theophrasti, post-emergence, 312 h, read-out: Velvetleaf damage rating; for pest or weed control at 15.625 g/ha: 15.625 g ai/ha, evaluated after 13 days (100=total damage to plant; 0=no damage to plant); for pest or weed control at 62.5 g/ha: 62.5 g ai/ha; for pest or weed control at 62.5 g/ha / pest or weed control at 250 g/ha: evaluated after 13 days, 100=total damage to plant, 0=no damage to plant; for pest or weed control at 250 g/ha: 250 g ai/ha
Summary of the method: as §2

SMILES	pest or weed control at 15.625 g/ha [1] [%]	pest or weed control at 62.5 g/ha [1] [%]	pest or weed control at 250 g/ha [1] [%]	pest or weed control at 15.625 g/ha [2] [%]	pest or weed control at 62.5 g/ha [2] [%]	pest or weed control at 250 g/ha [2] [%]	plant injury at 15.625 g/ha [3] [%]	plant injury at 62.5 g/ha [3] [%]	plant injury at 250 g/ha [3] [%]	pest or weed control at 15.625 g/ha [4] [%]	pest or weed control at 62.5 g/ha [4] [%]	pest or weed control at 250 g/ha [4] [%]	pest or weed control at 15.625 g/ha [5] [%]	pest or weed control at 62.5 g/ha [5] [%]	pest or weed control at 250 g/ha [5] [%]	pest or weed control at 15.625 g/ha [6] [%]	pest or weed control at 62.5 g/ha [6] [%]	pest or weed control at 250 g/ha [6] [%]	pest or weed control at 15.625 g/ha [7] [%]	pest or weed control at 62.5 g/ha [7] [%]	further results
Cc1c(F)cccc1NC(=O)[C@@H]1C(=O)N(C)C[C@H]1c1cccc(OCC(F)(F)F)c1 (racemic) [Compound 1764]	0	10	30	0	0	20	0	20	70	40	70	80	60	70	80	0	10	30	0	10	pest or weed control at 250 g/ha [7]: 30%; pest or weed control at 15.625 g/ha [8]: 10%; pest or weed control at 62.5 g/ha [8]: 30%; pest or weed control at 250 g/ha [8]: 70%; plant injury at 15.625 g/ha [9]: 10%; plant injury at 62.5 g/ha [9]: 10%; plant injury at 250 g/ha [9]: 70%; pest or weed control at 15.625 g/ha [10]: 40%; pest or weed control at 62.5 g/ha [10]: 50%; pest or weed control at 250 g/ha [10]: 80%; pest or weed control at 15.625 g/ha [11]: 70%; pest or weed control at 62.5 g/ha [11]: 80%; pest or weed control at 250 g/ha [11]: 80%; pest or weed control at 15.625 g/ha [12]: 20%; pest or weed control at 62.5 g/ha [12]: 40%; pest or weed control at 250 g/ha [12]: 60%
COCCOc1cccc([C@@H]2CN(C)C(=O)[C@H]2C(=O)Nc2cccc(F)c2C)c1 (racemic) [Compound 1765]	0	0	0	0	0	0	0	0	20	20	50	60	50	70	90	0	0	0	0	0	pest or weed control at 250 g/ha [7]: 0%; pest or weed control at 15.625 g/ha [8]: 0%; pest or weed control at 62.5 g/ha [8]: 0%; pest or weed control at 250 g/ha [8]: 20%; plant injury at 15.625 g/ha [9]: 0%; plant injury at 62.5 g/ha [9]: 10%; plant injury at 250 g/ha [9]: 10%; pest or weed control at 15.625 g/ha [10]: 0%; pest or weed control at 62.5 g/ha [10]: 30%; pest or weed control at 250 g/ha [10]: 70%; pest or weed control at 15.625 g/ha [11]: 10%; pest or weed control at 62.5 g/ha [11]: 60%; pest or weed control at 250 g/ha [11]: 70%; pest or weed control at 15.625 g/ha [12]: 0%; pest or weed control at 62.5 g/ha [12]: 0%; pest or weed control at 250 g/ha [12]: 0%
